Assay results: ChEMBL document CHEMBL4765323, “Design, synthesis, and biological evaluation of novel miconazole analogues containing selenium as potent antifungal agents” (Eur J Med Chem, 2020)
Values after ≈ are worked out from the molar mass of the structure shown.

Columns and labels:
Candida albicans [1] = assay: Antifungal activity against Candida albicans CPCC400616 measured after 24 hrs by micro-broth dilution assay; type: functional
Candida albicans [2] = assay: Antifungal activity against Candida albicans ATCC SC5314 measured after 24 hrs by micro-broth dilution assay; type: functional
[Candida] zeylanoides = Antifungal activity against Candida zeylanoides CMGCC2.3739 measured after 24 hrs by micro-broth dilution assay; type: functional; conditions: Dujonia zeylanoides
Cryptococcus neoformans = assay: Antifungal activity against Cryptococcus neoformans CGMCC2.3161 measured after 72 hrs by micro-broth dilution assay; type: functional
Pichia kudriavzevii = assay: Antifungal activity against Candida krusei AS 2.1045 measured after 24 hrs by micro-broth dilution assay; type: functional
Nakaseomyces glabratus = assay: Antifungal activity against clinical isolate Candida glabrata measured after 24 hrs by micro-broth dilution assay; type: functional
Candida parapsilosis = assay: Antifungal activity against Candida parapsilosis ATCC 22019 measured after 24 hrs by micro-broth dilution assay; type: functional; conditions: Lodderomyces parapsilosis
Aspergillus fumigatus = assay: Antifungal activity against Aspergillus fumigatus CGMCC 3.7795 measured after 72 hrs by micro-broth dilution assay; type: functional
Candida albicans [3] = assay: Fungicidal activity against Candida albicans CPCC400616 measured after 48 hrs; type: functional
[4] = Ratio of MFC for fungicidal activity against Candida albicans CPCC400616 to MIC for Antifungal activity against Candida albicans CPCC400616; type: functional; conditions: time 24 hrs
Candida albicans [5] = assay: Inhibition of CYP51 in azole-resistant Candida albicans ATCC […] assessed as ergosterol level at 0.03125 ug/ml incubated for 16 hrs by LC-MS analysis relative to control; design: scale not given: the % may be the effect or the level left; conditions: dose 0.03125 µg/ml
Candida albicans [6] = assay: Inhibition of CYP51 in azole-resistant Candida albicans ATCC […] assessed as ergosterol level at 0.125 ug/ml incubated for 16 hrs by LC-MS analysis relative to control; design: scale not given: the % may be the effect or the level left; conditions: dose 0.125 µg/ml
Candida albicans [7] = assay: Inhibition of CYP51 in azole-resistant Candida albicans ATCC […] assessed as ergosterol level at 0.5 ug/ml incubated for 16 hrs by LC-MS analysis relative to control; design: scale not given: the % may be the effect or the level left; conditions: dose 0.5 µg/ml
Candida albicans [8] = assay: Inhibition of CYP51 in azole-resistant Candida albicans ATCC […] assessed as ergosterol level at 2 ug/ml incubated for 16 hrs by LC-MS analysis relative to control; design: scale not given: the % may be the effect or the level left; conditions: dose 2.0 µg/ml
Candida albicans [9] = assay: Antibiofilm activity against FCZ-Resistant Candida albicans CPCC400616 assessed as sessile minimum inhibitory concentration of biofilm formation at 50% after 1.5 hrs by XTT assay; type: functional
Candida albicans [10] = assay: Antibiofilm activity against FCZ-Resistant Candida albicans CPCC400616 assessed as sessile minimum inhibitory concentration of biofilm formation at 50% after 3 hrs by XTT assay; type: functional
Candida albicans [11] = assay: Antibiofilm activity against FCZ-Resistant Candida albicans CPCC400616 assessed as sessile minimum inhibitory concentration of biofilm formation at 50% after 6 hrs by XTT assay; type: functional
Candida albicans [12] = assay: Antibiofilm activity against FCZ-Resistant Candida albicans CPCC400616 assessed as sessile minimum inhibitory concentration of biofilm formation at 50% after 24 hrs by XTT assay; type: functional
Candida albicans [13] = assay: Antibiofilm activity against FCZ-Resistant Candida albicans CPCC400616 assessed as sessile minimum inhibitory concentration of biofilm formation at 80% after 1.5 hrs by XTT assay; type: functional
Candida albicans [14] = assay: Antibiofilm activity against FCZ-Resistant Candida albicans CPCC400616 assessed as sessile minimum inhibitory concentration of biofilm formation at 80% after 3 hrs by XTT assay; type: functional
Candida albicans [15] = assay: Antibiofilm activity against FCZ-Resistant Candida albicans CPCC400616 assessed as sessile minimum inhibitory concentration of biofilm formation at 80% after 6 hrs by XTT assay; type: functional
Candida albicans [16] = assay: Antibiofilm activity against FCZ-Resistant Candida albicans CPCC400616 assessed as sessile minimum inhibitory concentration of biofilm formation at 80% after 24 hrs by XTT assay; type: functional
[17] = Ratio of hemolysis activity in rabbit RBC to MIC for Candida albicans; type: toxicity; conditions: rabbit red blood cells (RBC)
Candida albicans [18] = assay: Inhibition of CYP51 in azole-resistant Candida albicans ATCC […] assessed as Obtusifoliol level at 0.03125 ug/ml incubated for 16 hrs by LC-MS analysis relative to control; design: scale not given: the % may be the effect or the level left; conditions: dose 0.03125 µg/ml
Candida albicans [19] = assay: Inhibition of CYP51 in azole-resistant Candida albicans ATCC […] assessed as Obtusifoliol level at 0.125 ug/ml incubated for 16 hrs by LC-MS analysis relative to control; design: scale not given: the % may be the effect or the level left; conditions: dose 0.125 µg/ml
Candida albicans [20] = assay: Inhibition of CYP51 in azole-resistant Candida albicans ATCC […] assessed as Obtusifoliol level at 0.5 ug/ml incubated for 16 hrs by LC-MS analysis relative to control; design: scale not given: the % may be the effect or the level left; conditions: dose 0.5 µg/ml
Candida albicans [21] = assay: Inhibition of CYP51 in azole-resistant Candida albicans ATCC […] assessed as Obtusifoliol level at 2 ug/ml incubated for 16 hrs by LC-MS analysis relative to control; design: scale not given: the % may be the effect or the level left; conditions: dose 2.0 µg/ml
Candida albicans [22] = assay: Inhibition of CYP51 in azole-resistant Candida albicans ATCC […] assessed as Obtusifoliol level at 8 ug/ml incubated for 16 hrs by LC-MS analysis relative to control; design: scale not given: the % may be the effect or the level left; conditions: dose 8.0 µg/ml
Candida albicans [23] = assay: Inhibition of CYP51 in azole-resistant Candida albicans ATCC […] assessed as Lanosterol level at 0.03125 ug/ml incubated for 16 hrs by LC-MS analysis relative to control; design: scale not given: the % may be the effect or the level left; conditions: dose 0.03125 µg/ml
Candida albicans [24] = assay: Inhibition of CYP51 in azole-resistant Candida albicans ATCC […] assessed as Lanosterol level at 0.125 ug/ml incubated for 16 hrs by LC-MS analysis relative to control; design: scale not given: the % may be the effect or the level left; conditions: dose 0.125 µg/ml
Candida albicans [25] = assay: Inhibition of CYP51 in azole-resistant Candida albicans ATCC […] assessed as Lanosterol level at 0.5 ug/ml incubated for 16 hrs by LC-MS analysis relative to control; design: scale not given: the % may be the effect or the level left; conditions: dose 0.5 µg/ml
Candida albicans [26] = assay: Inhibition of CYP51 in azole-resistant Candida albicans ATCC […] assessed as Lanosterol level at 2 ug/ml incubated for 16 hrs by LC-MS analysis relative to control; design: scale not given: the % may be the effect or the level left; conditions: dose 2.0 µg/ml
Candida albicans [27] = assay: Inhibition of CYP51 in azole-resistant Candida albicans ATCC […] assessed as Lanosterol level at 8 ug/ml incubated for 16 hrs by LC-MS analysis relative to control; design: scale not given: the % may be the effect or the level left; conditions: dose 8.0 µg/ml
Candida albicans [28] = assay: Inhibition of CYP51 in azole-resistant Candida albicans ATCC […] assessed as Eburicol level at 0.03125 ug/ml incubated for 16 hrs by LC-MS analysis relative to control; design: scale not given: the % may be the effect or the level left; conditions: dose 0.03125 µg/ml
Candida albicans [29] = assay: Inhibition of CYP51 in azole-resistant Candida albicans ATCC […] assessed as Eburicol level at 0.125 ug/ml incubated for 16 hrs by LC-MS analysis relative to control; design: scale not given: the % may be the effect or the level left; conditions: dose 0.125 µg/ml
Candida albicans [30] = assay: Inhibition of CYP51 in azole-resistant Candida albicans ATCC […] assessed as Eburicol level at 0.5 ug/ml incubated for 16 hrs by LC-MS analysis relative to control; design: scale not given: the % may be the effect or the level left; conditions: dose 0.5 µg/ml
Candida albicans [31] = assay: Inhibition of CYP51 in azole-resistant Candida albicans ATCC […] assessed as Eburicol level at 2 ug/ml incubated for 16 hrs by LC-MS analysis relative to control; design: scale not given: the % may be the effect or the level left; conditions: dose 2.0 µg/ml
Candida albicans [32] = assay: Inhibition of CYP51 in azole-resistant Candida albicans ATCC […] assessed as Eburicol level at 8 ug/ml incubated for 16 hrs by LC-MS analysis relative to control; design: scale not given: the % may be the effect or the level left; conditions: dose 8.0 µg/ml
Candida albicans [33] = assay: Inhibition of CYP51 in azole-resistant Candida albicans ATCC […] assessed as inhibition of ergosterol biosynthesis by measuring ergosterol content at 8 ug/ml incubated for 16 hrs by LC-MS analysis relative to control; design: scale not given: the % may be the effect or the level left; conditions: dose 8.0 µg/ml

## Clc1ccc(COC(Cn2ccnc2)c2ccc(Cl)cc2Cl)c(Cl)c1 (centres undefined) [MICONAZOLE]
Candida albicans [1]
  MIC: 0.25 µg/mL (≈ 0.601 µM)
Candida albicans [2]
  MIC: 0.03 µg/mL (≈ 0.0721 µM)
[Candida] zeylanoides
  MIC: 1 µg/mL (≈ 2.4 µM)
Cryptococcus neoformans
  MIC: 0.5 µg/mL (≈ 1.2 µM)
Pichia kudriavzevii
  MIC: 0.5 µg/mL (≈ 1.2 µM)
Nakaseomyces glabratus
  MIC: 0.5 µg/mL (≈ 1.2 µM)
Candida parapsilosis
  MIC: 0.25 µg/mL (≈ 0.601 µM)
Aspergillus fumigatus
  MIC: 2 µg/mL (≈ 4.81 µM)
Candida albicans [3]
  MIC: 2 µg/mL (≈ 4.81 µM)
[4]
  MFC/MIC ratio: 8
Candida albicans [5]
  Activity: 11.3%
Candida albicans [6]
  Activity: 7.3%
Candida albicans [7]
  Activity: 8.3%
Candida albicans [8]
  Activity: 5.49%
Candida albicans [9]
  Activity: 16 µg/mL
Candida albicans [10]
  Activity: 32 µg/mL
Candida albicans [11]
  Activity: >128 µg/mL
Candida albicans [12]
  Activity: >128 µg/mL
Candida albicans [13]
  Activity: 128 µg/mL
Candida albicans [14]
  Activity: 128 µg/mL
Candida albicans [15]
  Activity: >128 µg/mL
Candida albicans [16]
  Activity: >128 µg/mL
[17]
  selectivity ratio: 8
Candida albicans [18]
  Activity: 2.9%
Candida albicans [19]
  Activity: 7.2%
Candida albicans [20]
  Activity: 6.1%
Candida albicans [21]
  Activity: 9.7%
Candida albicans [22]
  Activity: 14.6%
Candida albicans [23]
  Activity: 12.4%
Candida albicans [24]
  Activity: 14.1%
Candida albicans [25]
  Activity: 8.9%
Candida albicans [26]
  Activity: 6.4%
Candida albicans [27]
  Activity: 7.8%
Candida albicans [28]
  Activity: 2.9%
Candida albicans [29]
  Activity: 63.5%
Candida albicans [30]
  Activity: 64.8%
Candida albicans [31]
  Activity: 80.7%
Candida albicans [32]
  Activity: 74.2%
Candida albicans [33]
  Activity: 0%
